For assay [1], the system named is SA3-6A/B (DNA, aptamer) TGCGGAGGAAGGTTCGACCATCGTGCGGGTAGGTAGACC/GAACCTGGGGGAGTAGGTCTACCTACCCGCACGATGGTC
Kind of assay: UV melting, first-peak height. Conditions: 150 mM NaCl, 5 mM MgCl2; 10 mM HEPES pH 7.4; 100 µM guanosine negative control; signal close to that of 5 µM adenosine.

Assay [2] has the same test system. The assay can be described thus: UV melting first-peak height, Langmuir fit. Conditions: 150 mM NaCl, 5 mM MgCl2; 10 mM HEPES pH 7.4; 0.9 µM strands; peak normalized to dimer peak; apparent; per site.
Assay [3] has the same test system. Kind of assay: UV melting at 260 nm. To be noted: 150 mM NaCl, 5 mM MgCl2; 10 mM HEPES pH 7.4; 100 µM adenosine; 0.9 µM strands; first (aptachain) peak.
Assay [4] has as its system SA5-5A/B (DNA, aptamer) CCTGCGGAGGAAGGTTGACCATCGTGCGGGTAGGTAGA/AACCTGGGGGAGTAGGTCTACCTACCCGCACGATGGTC
Kind of assay: UV melting at 260 nm. Conditions: 150 mM NaCl, 5 mM MgCl2; 10 mM HEPES pH 7.4; 100 µM adenosine; 0.9 µM strands; first (aptachain) peak.

Assay [5] concerns SA5-6A/B (DNA, aptamer) CCTGCGGAGGAAGGTTCGACCATCGTGCGGGTAGGTAGA/GAACCTGGGGGAGTAGGTCTACCTACCCGCACGATGGTC
The assay can be described thus: UV melting at 260 nm. Conditions: 150 mM NaCl, 5 mM MgCl2; 10 mM HEPES pH 7.4; 100 µM adenosine; 0.9 µM strands; first (aptachain) peak.

Assay [6] has as its system Apta6 (DNA, aptamer) GAACCTGGGGGAGTATTGCGGAGGAAGGTTC
Kind of assay: UV melting at 260 nm. To be noted: 150 mM NaCl, 5 mM MgCl2; 10 mM HEPES pH 7.4; 100 µM adenosine; 0.9 µM strand; single hairpin peak.

The test system of assay [7] is SA5-8A/B (DNA, aptamer) CCTGCGGAGGAAGGTTCTCGACCATCGTGCGGGTAGGTAGA/GAGAACCTGGGGGAGTAGGTCTACCTACCCGCACGATGGTC
Kind of assay: UV melting at 260 nm. To be noted: 150 mM NaCl, 5 mM MgCl2; 10 mM HEPES pH 7.4; 100 µM adenosine; 0.9 µM strands; first (aptachain) peak.

Assay [8] concerns SA3-5A/B (DNA, aptamer) TGCGGAGGAAGGTTGAGGACCATCGTGCGGGTAGGTAGACC/GAGAACCTGGGGGAGTAGGTCTACCTACCCGCACGATGGTC
The assay can be described thus: UV melting at 260 nm. Conditions: 150 mM NaCl, 5 mM MgCl2; 10 mM HEPES pH 7.4; 100 µM adenosine; peak at 28 °C only with adenosine, absent without.

Molecules are shown by their SMILES.

One may read the ΔTm as the change in melting temperature against a reference sample.

As to `Nc1nc2c(ncn2[C@@H]2O[C@H](CO)[C@@H](O)[C@H]2O)c(=O)[nH]1`, the binding entry in assay [1] was “weak”.

In the case of `Nc1ncnc2c1ncn2[C@@H]1O[C@H](CO)[C@@H](O)[C@H]1O`, the KD in assay [2] was 19 ± 2 µM. Also, the ΔTm was 5.5 °C in assay [3]; 2.5 °C in assay [4]; 2.5 °C in assay [5]; < 1 °C in assay [6]; 2 °C in assay [7]. Further, the binding entry in assay [8] is listed as “yes”.
